This note sets out measurements from publication PMC7991740, “Introduction of Non-natural Amino Acids Into T-Cell Epitopes to Mitigate Peptide-Specific T-Cell Responses” (Frontiers in Immunology, 2021).

Experiment in all cases: biochemical
Format in all cases: binding

The target in test [1] is T1, HLA-DRB1*01:01 (Homo sapiens, UniProt P01903+P01911, A100R/D57E/F55L/F60I/F76Y/I96L/L162R/M171V/P40L/Q125E/R42F/V115G/Y59C).
T1 construct: Human leukocyte antigen-DR molecules were immunopurified from homozygous EBV B lymphoblastoid cells; endogenous in cells
Conditions: […]; mean of at least two independent experiments; read-out: IC50 DRB1*0101.

Test [2] has as its target T2, HLA-DRB1*04:01 (Homo sapiens, UniProt P01903+P01911, A100K/A169T/F76Y/I96L/K127E/L162R/M171V/N62H/P40V/Q125Y/R42H/S133A/S149N/S66Y/V115G/V209L/W38E).
T2 construct: Human leukocyte antigen-DR molecules were immunopurified from homozygous EBV B lymphoblastoid cells; endogenous in cells
The conditions noted are these: […]; mean of at least two independent experiments; read-out: IC50 DRB1*0401.

In test [3] the target is HLA-DRB1*07:01 (Homo sapiens, UniProt P01903+P01911, A100R/A102G/A103Q/D57E/D86V/E43K/F76Y/K127E/L162R/M171V/P40G/Q125H/Q99D/R33Q/R42Y/R54Q/S133A/S66F/T210M/V115G/Y107V/Y59L/Y89S). Conditions: […]; mean of at least two independent experiments; read-out: IC50 DRB1*0701 (converted).
Test [4] has as its target HLA-DRB1*11:01 (Homo sapiens, UniProt P01903+P01911, A100R/A169T/A87E/I96F/K41T/L162R/M171V/P40S/Q125H/Q178H/Q39Y/Q99D/R42S/S66Y/T262R/V115G/W38E). Conditions: […]; mean of at least two independent experiments; read-out: IC50 DRB1*1101 (converted).
The target of test [5] is T3, HLA-DRB5*01:01 (Homo sapiens, UniProt P01903+Q30154).
T3 construct: Human leukocyte antigen-DR molecules were immunopurified from homozygous EBV B lymphoblastoid cells; endogenous in cells
The conditions noted are these: […]; mean of at least two independent experiments; read-out: IC50 DRB5*0101.

The structures appear in SMILES notation. Where a SMILES comes first, the peptide text is derived from it. [ ]: non-standard residue; d: D form. Aib = CC(C)(N)C(=O)O A value given as a limit tells only on which side of the number the result lay.

HLA-DRB1*11:01, sequence (P01903 26-254 limits assumed, other chains not shown): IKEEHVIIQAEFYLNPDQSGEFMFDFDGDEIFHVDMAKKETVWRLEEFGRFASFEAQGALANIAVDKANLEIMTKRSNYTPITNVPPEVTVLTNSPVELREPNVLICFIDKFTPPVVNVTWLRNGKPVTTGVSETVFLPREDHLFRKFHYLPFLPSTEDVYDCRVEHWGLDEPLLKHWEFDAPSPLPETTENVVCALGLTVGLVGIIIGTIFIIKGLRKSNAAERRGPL

Regarding `CC(C)C[C@H](NC(=O)[C@H](CCCCN)NC(=O)[C@H](CC(C)C)NC(=O)[C@@H](NC(=O)[C@H](CC(N)=O)NC(=O)[C@H](CCC(N)=O)NC(=O)[C@H](CCCCN)NC(=O)[C@@H](NC(=O)[C@H](Cc1ccc(O)cc1)NC(=O)[C@H](CCCCN)NC(=O)C(C)(C)N)C(C)C)[C@@H](C)O)C(=O)N[C@@H](C)C(=O)N[C@H](C(=O)O)[C@@H](C)O` [Aib1] (H-[Aib]KYVKQNTLKLAT-OH), the IC50 (commonly the concentration at which inhibition is half-maximal) in test [1] was 0.3 nM; in test [2], 20 nM; in test [3], 11 nM; in test [4] it was 18 nM; in test [5], 3 nM.

With `CC(C)C[C@H](NC(=O)[C@H](CCCCN)NC(=O)[C@H](CC(C)C)NC(=O)[C@@H](NC(=O)[C@H](CC(N)=O)NC(=O)[C@H](CCC(N)=O)NC(=O)[C@H](CCCCN)NC(=O)[C@@H](NC(=O)[C@H](Cc1ccc(O)cc1)NC(=O)C(C)(C)NC(=O)[C@@H]1CCCN1)C(C)C)[C@@H](C)O)C(=O)N[C@@H](C)C(=O)N[C@H](C(=O)O)[C@@H](C)O` [Aib2] (H-P[Aib]YVKQNTLKLAT-OH), the IC50 in test [1] is 8 nM; in test [2], 95 nM; in test [3], 7700 nM; in test [4], 4000 nM; in test [5], 500 nM.

For the compound `CC(C)C[C@H](NC(=O)[C@H](CCCCN)NC(=O)[C@H](CC(C)C)NC(=O)[C@@H](NC(=O)[C@H](CC(N)=O)NC(=O)[C@H](CCC(N)=O)NC(=O)[C@H](CCCCN)NC(=O)[C@@H](NC(=O)C(C)(C)NC(=O)[C@H](CCCCN)NC(=O)[C@@H]1CCCN1)C(C)C)[C@@H](C)O)C(=O)N[C@@H](C)C(=O)N[C@H](C(=O)O)[C@@H](C)O` [Aib3], the IC50 in test [1] is 60 nM; in test [2] it was more than 100000 nM; in test [3] it was 460 nM; in test [4], more than 100000 nM; in test [5], more than 10000 nM.

As to `CC(C)C[C@H](NC(=O)[C@H](CCCCN)NC(=O)[C@H](CC(C)C)NC(=O)[C@@H](NC(=O)[C@H](CC(N)=O)NC(=O)[C@H](CCC(N)=O)NC(=O)[C@H](CCCCN)NC(=O)C(C)(C)NC(=O)[C@H](Cc1ccc(O)cc1)NC(=O)[C@H](CCCCN)NC(=O)[C@@H]1CCCN1)[C@@H](C)O)C(=O)N[C@@H](C)C(=O)N[C@H](C(=O)O)[C@@H](C)O` [Aib4], the IC50 in test [1] is 10 nM; in test [2], 75 nM; in test [3], 6000 nM; in test [4] it was 4000 nM; in test [5], 280 nM.

Regarding `CC(C)C[C@H](NC(=O)[C@H](CCCCN)NC(=O)[C@H](CC(C)C)NC(=O)[C@@H](NC(=O)[C@H](CC(N)=O)NC(=O)[C@H](CCC(N)=O)NC(=O)C(C)(C)NC(=O)[C@@H](NC(=O)[C@H](Cc1ccc(O)cc1)NC(=O)[C@H](CCCCN)NC(=O)[C@@H]1CCCN1)C(C)C)[C@@H](C)O)C(=O)N[C@@H](C)C(=O)N[C@H](C(=O)O)[C@@H](C)O` [Aib5], the IC50 was 1 nM in test [1]; 30 nM in test [2]; 780 nM in test [3]; 300 nM in test [4]; 600 nM in test [5].

Turning to `CC(C)C[C@H](NC(=O)[C@H](CCCCN)NC(=O)[C@H](CC(C)C)NC(=O)[C@@H](NC(=O)[C@H](CC(N)=O)NC(=O)C(C)(C)NC(=O)[C@H](CCCCN)NC(=O)[C@@H](NC(=O)[C@H](Cc1ccc(O)cc1)NC(=O)[C@H](CCCCN)NC(=O)[C@@H]1CCCN1)C(C)C)[C@@H](C)O)C(=O)N[C@@H](C)C(=O)N[C@H](C(=O)O)[C@@H](C)O` [Aib6], the IC50 in test [1] was 0.7 nM; in test [2], 55000 nM; in test [3], 75 nM; in test [4] it was 150 nM; in test [5], 5 nM.

With `CC(C)C[C@H](NC(=O)[C@H](CCCCN)NC(=O)[C@H](CC(C)C)NC(=O)[C@@H](NC(=O)C(C)(C)NC(=O)[C@H](CCC(N)=O)NC(=O)[C@H](CCCCN)NC(=O)[C@@H](NC(=O)[C@H](Cc1ccc(O)cc1)NC(=O)[C@H](CCCCN)NC(=O)[C@@H]1CCCN1)C(C)C)[C@@H](C)O)C(=O)N[C@@H](C)C(=O)N[C@H](C(=O)O)[C@@H](C)O` [Aib7] (H-PKYVKQ[Aib]TLKLAT-OH), the IC50 in test [1] is 6.8 nM; in test [2], 45 nM; in test [3], 4200 nM; in test [4] it was 6000 nM; in test [5], 900 nM.

For the compound `CC(C)C[C@H](NC(=O)[C@H](CCCCN)NC(=O)[C@H](CC(C)C)NC(=O)C(C)(C)NC(=O)[C@H](CC(N)=O)NC(=O)[C@H](CCC(N)=O)NC(=O)[C@H](CCCCN)NC(=O)[C@@H](NC(=O)[C@H](Cc1ccc(O)cc1)NC(=O)[C@H](CCCCN)NC(=O)[C@@H]1CCCN1)C(C)C)C(=O)N[C@@H](C)C(=O)N[C@H](C(=O)O)[C@@H](C)O` [Aib8], the IC50 is 0.8 nM in test [1]; 140 nM in test [2]; 90 nM in test [3]; 550 nM in test [4]; 140 nM in test [5].

`CC(C)C[C@H](NC(=O)[C@@H](NC(=O)[C@H](CC(N)=O)NC(=O)[C@H](CCC(N)=O)NC(=O)[C@H](CCCCN)NC(=O)[C@@H](NC(=O)[C@H](Cc1ccc(O)cc1)NC(=O)[C@H](CCCCN)NC(=O)[C@@H]1CCCN1)C(C)C)[C@@H](C)O)C(=O)NC(C)(C)C(=O)N[C@@H](CC(C)C)C(=O)N[C@@H](C)C(=O)N[C@H](C(=O)O)[C@@H](C)O` [Aib10]: the IC50 is 9 nM in test [1]; 490 nM in test [2]; 16000 nM in test [3]; 8000 nM in test [4]; 5000 nM in test [5].

Take `CC(C)C[C@H](NC(=O)[C@@H](NC(=O)[C@H](CC(N)=O)NC(=O)[C@H](CCC(N)=O)NC(=O)[C@H](CCCCN)NC(=O)[C@@H](NC(=O)[C@H](Cc1ccc(O)cc1)NC(=O)[C@H](CCCCN)NC(=O)[C@@H]1CCCN1)C(C)C)[C@@H](C)O)C(=O)N[C@@H](CCCCN)C(=O)NC(C)(C)C(=O)N[C@@H](C)C(=O)N[C@H](C(=O)O)[C@@H](C)O` [Aib11]: the IC50 in test [1] was 20 nM; in test [2], 25 nM; in test [3], 3000 nM; in test [4], 350 nM; in test [5], 95 nM.

Regarding `CC(C)C[C@H](NC(=O)[C@H](CCCCN)NC(=O)[C@H](CC(C)C)NC(=O)[C@@H](NC(=O)[C@H](CC(N)=O)NC(=O)[C@H](CCC(N)=O)NC(=O)[C@H](CCCCN)NC(=O)[C@@H](NC(=O)[C@H](Cc1ccc(O)cc1)NC(=O)[C@H](CCCCN)NC(=O)[C@@H]1CCCN1)C(C)C)[C@@H](C)O)C(=O)NC(C)(C)C(=O)N[C@H](C(=O)O)[C@@H](C)O` [Aib12], the IC50 in test [1] was 0.7 nM; in test [2] it was 32 nM; in test [3], 9 nM; in test [4], 100 nM; in test [5] it was 5 nM.

Regarding `CC(C)C[C@H](NC(=O)[C@H](CCCCN)NC(=O)[C@H](CC(C)C)NC(=O)[C@@H](NC(=O)[C@H](CC(N)=O)NC(=O)[C@H](CCC(N)=O)NC(=O)[C@H](CCCCN)NC(=O)[C@@H](NC(=O)[C@H](Cc1ccc(O)cc1)NC(=O)[C@H](CCCCN)NC(=O)[C@@H]1CCCN1)C(C)C)[C@@H](C)O)C(=O)N[C@@H](C)C(=O)NC(C)(C)C(=O)O` [Aib13], the IC50 in test [1] is 0.2 nM; in test [2], 6 nM; in test [3], 6 nM; in test [4], 8 nM; in test [5], 2 nM.

On to `CC(C)C[C@H](NC(=O)[C@H](CCCCN)NC(=O)[C@H](CC(C)C)NC(=O)[C@@H](NC(=O)[C@H](CC(N)=O)NC(=O)[C@H](CCC(N)=O)NC(=O)[C@H](CCCCN)NC(=O)[C@@H](NC(=O)CN(Cc1ccc(O)cc1)C(=O)[C@H](CCCCN)NC(=O)[C@@H]1CCCN1)C(C)C)[C@@H](C)O)C(=O)N[C@@H](C)C(=O)N[C@H](C(=O)O)[C@@H](C)O` [Pep3], for which the IC50 in test [1] was 4000 nM; in test [2], more than 10000 nM; in test [3], more than 100000 nM; in test [4], more than 100000 nM; in test [5], 14000 nM.

Take `CC(C)C[C@H](NC(=O)[C@H](CCCCN)NC(=O)[C@H](CC(C)C)NC(=O)[C@@H](NC(=O)[C@H](CC(N)=O)NC(=O)[C@H](CCC(N)=O)NC(=O)[C@H](CCCCN)NC(=O)CN(C(=O)[C@H](Cc1ccc(O)cc1)NC(=O)[C@H](CCCCN)NC(=O)[C@@H]1CCCN1)C(C)C)[C@@H](C)O)C(=O)N[C@@H](C)C(=O)N[C@H](C(=O)O)[C@@H](C)O` [Pep4]: the IC50 in test [1] is 5 nM; in test [2], 14 nM; in test [3] it was 710 nM; in test [4] it was 6000 nM; in test [5], 280 nM.

Take `CC(C)C[C@H](NC(=O)[C@H](CCCCN)NC(=O)[C@H](CC(C)C)NC(=O)[C@@H](NC(=O)[C@H](CC(N)=O)NC(=O)CN(CCC(N)=O)C(=O)[C@H](CCCCN)NC(=O)[C@@H](NC(=O)[C@H](Cc1ccc(O)cc1)NC(=O)[C@H](CCCCN)NC(=O)[C@@H]1CCCN1)C(C)C)[C@@H](C)O)C(=O)N[C@@H](C)C(=O)N[C@H](C(=O)O)[C@@H](C)O` [Pep6]: the IC50 is 0.4 nM in test [1]; 82 nM in test [2]; 290 nM in test [3]; 45 nM in test [4]; 10 nM in test [5].
